Laboratory results reported in PubChem BioAssay (NCI).
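Interpolation was linear, between the two tested concentrations surrounding the appropriate level; five concentrations were tested over 48 hours in 96-well plates. At the TGI there is no net growth.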 Where a SMILES comes first, the peptide text is derived from it. The star is where a group is joined. Boc = CC(C)(C)OC(=O)*

Assays:
Test in all cases: NCI anticancer screen, dose series, 48 h
SNB-19 CNS = test system: SNB-19 CNS
KM12 colon = test system: KM12 colon
A549 NSCLC = test system: A549 NSCLC
MDA-MB-231 breast = test system: MDA-MB-231 breast
TK-10 renal = test system: TK-10 renal
SF-268 CNS = test system: SF-268 CNS
HOP-62 NSCLC = test system: HOP-62 NSCLC
HL-60(TB) leukemia = test system: HL-60(TB) leukemia
MDA-N = test system: MDA-N
CAKI-1 renal = test system: CAKI-1 renal
HCT-116 colon = test system: HCT-116 colon
SF-539 CNS = test system: SF-539 CNS
MOLT-4 leukemia = test system: MOLT-4 leukemia
HS 578T breast = test system: HS 578T breast
MALME-3M melanoma = test system: MALME-3M melanoma
NCI-H522 lung = test system: NCI-H522 lung
A498 renal = test system: A498 renal
HOP-92 NSCLC = test system: HOP-92 NSCLC
SR leukemia = test system: SR leukemia

Row | Structure (SMILES) | TGI (SNB-19 CNS) [µM] | TGI (KM12 colon) [µM] | TGI (A549 NSCLC) [µM] | TGI (MDA-MB-231 breast) [µM] | TGI (TK-10 renal) [µM] | TGI (SF-268 CNS) [µM] | TGI (HOP-62 NSCLC) [µM] | TGI (HL-60(TB) leukemia) [µM] | TGI (MDA-N) [µM] | TGI (CAKI-1 renal) [µM] | TGI (HCT-116 colon) [µM] | TGI (SF-539 CNS) [µM] | TGI (MOLT-4 leukemia) [µM] | TGI (HS 578T breast) [µM] | TGI (MALME-3M melanoma) [µM] | TGI (NCI-H522 lung) [µM] | TGI (A498 renal) [µM] | TGI (HOP-92 NSCLC) [µM] | TGI (SR leukemia) [µM]
1 | O=[N+]([O-])c1ccc(N2N=C(c3ccc4ccccc4c3O)CC2c2ccc(Cl)cc2Cl)c([N+](=O)[O-])c1 (centres undefined) | > 100 | > 100 | > 100 | > 100 | > 100 | > 100 | > 100 | 77.4 | > 100 | > 100 | > 100 | 70.6 | 38 | 95.3 | > 100 | > 100 |  |  | 
2 | Nc1cnc2c(c1)c(=O)nc1n2CCS1 | > 100 | > 100 | > 100 | > 100 | > 100 | > 100 | > 100 | > 100 | > 100 | > 100 | > 100 | > 100 | > 100 |  | > 100 |  | > 100 | > 100 | 
3 | CCCCOc1ccc(S(=O)(=O)/N=C(\NN)Nc2ccc(Cl)cc2)cc1 | > 100 | > 100 | 36.6 | 46.3 | > 100 | 33 | 38.5 | > 100 | > 100 | 48.1 | 42.9 | 36.7 | > 100 |  | 86.3 |  | > 100 | 67.2 | 52.6
4 | COc1ccc(-n2c(=O)n(C)c(=O)n2-c2c(C)c(C)c(C)c(C)c2C)cc1 | > 100 | > 100 | > 100 | > 100 | > 100 | > 100 | > 100 |  | > 100 | > 100 | > 100 | > 100 | > 100 | > 100 | > 100 | > 100 | > 100 | > 100 | 
5 | CO[C@@]12CC(=O)/C(=C(O)\C=C\c3ccccc3)C(=O)[C@]1(OC)Cc1ccccc1O2 | > 100 | 46.6 | 88.8 |  | 73.4 | 91.1 | 51.7 |  |  |  | > 100 | 55.4 | 96 |  | > 100 | 83.8 | 90.7 | > 100 | 
6 | COC(=O)/C(=C\C(=O)c1ccc(Br)cc1)NN=C(c1ccccc1)c1ccccc1 |  | > 10 | > 10 | > 10 | > 10 | > 10 | > 10 | > 10 | > 10 | > 10 |  |  | > 10 |  | > 10 |  |  | > 10 | > 10
7 | CC1(C)O[C@@H](CP(c2ccccc2)c2ccccc2)[C@H](CP(c2ccccc2)c2ccccc2)O1 | 72.2 | 54.7 | 85.7 | 31.9 | 87 | 25.3 | 44.6 |  | 11.5 | > 100 | 20.9 | 21.1 | > 100 |  | 20.9 | 12.8 | 39.1 | 27.1 | 
8 | CCCCCCCCCC(=O)CC(=O)c1c(O)cc(O)cc1O | 68.1 | 42.8 | > 75 | > 75 | > 75 | 49.5 | 32.5 | 42.8 | 38 | > 75 | > 75 | 43.3 | 32.1 | 44.9 | 32.1 | 47.3 | 71.3 | 44.7 | 
9 | CCOC(=O)CCC(NC(=O)c1ccc(Oc2nc3ccccc3nc2C(=O)OCC)cc1)C(=O)OCC (centres undefined) | > 100 | > 100 | > 100 | 95.9 | > 100 | > 100 | > 100 | > 100 | > 100 | > 100 | > 100 | > 100 | > 100 | > 100 |  | > 100 |  | > 100 | > 100
10 | O=C(N/C(=C/c1ccc(Cl)cc1)c1nc2ccccc2c(=O)n1Nc1ccc([N+](=O)[O-])cc1[N+](=O)[O-])c1ccccc1 | > 100 | > 100 | > 100 | > 100 | > 100 |  | > 100 |  | > 100 | > 100 | > 100 | > 100 | > 100 | > 100 | > 100 | > 100 |  | > 100 | > 100
11 | COc1ccc2c(c1)CC[C@@H]1[C@@H]2CC[C@]2(C)[C@@H](O)/C(=C/c3ccncc3)C[C@@H]12 | 51.8 | 31.4 | 41.1 | 32.6 | 34 | 28.2 | 37.3 | 39.2 | 33.2 | 34.2 | 30 |  | 26.4 | 32 | 29.9 | 30.6 | 38.3 | 28 | 
12 | CC1OC(OC2C(O[C@@H]3C[C@@H]4CC[C@@H]5[C@H](CC[C@]6(C)[C@@H]7[C@H](C[C@@H]56)O[C@]5(CC[C@@H](C)CO5)[C@H]7C)[C@@]4(C)C[C@H]3O)OC(CO)C(OC3OC(CO)C(O)C(O)C3O)C2O)C(O)C(O)C1O (some centres undefined) | 3.66 | 4.49 | 3.02 | 3.39 |  | 3.51 | 3.22 | 3.83 | 3.37 | 3.35 | 13.1 | 3.16 | 3.67 | 4.38 | 2.57 | 2.4 | 3.1 | 5.16 | 
13 | O=C1C=C(Nc2ccccc2C(=O)CC(=O)C(=O)Nc2ccc(Cl)c(Cl)c2)c2ccccc2C1=O | > 100 | > 100 | > 100 |  |  | > 100 | > 100 |  |  | > 100 |  | > 100 | > 100 |  | 29.8 | 54.5 | > 100 | > 100 | > 100
14 | Cn1c(N)c(-c2c3ccccc3nc3ccccc23)c(=O)n(C)c1=O |  | > 100 | > 100 |  | > 100 | > 100 |  | > 100 |  | > 100 | > 100 | > 100 | > 100 |  | > 100 | > 100 | > 100 | > 100 | 
15 | CC1(C)S[C@@H]2[C@H](NC(=O)/C=C/c3ccccc3)C(=O)N2[C@H]1C(=O)O | > 100 | > 100 | > 100 | > 100 | > 100 | > 100 | > 100 | > 100 | > 100 | > 100 | > 100 | > 100 | > 100 | > 100 | > 100 | > 100 |  | > 100 | > 100
16 | COP(=O)(C(/C=C/c1ccccc1)OC(C)=O)[C@@H]1CCCC[C@H]1N(CC(C)(C)C)C(C)=O (some centres undefined) | > 100 | > 100 | 47.3 | 31.6 | 48.2 | 40.8 | 42.3 | 41.3 | 36.7 | 92.6 | 25.6 | 33.4 | 27.7 | 31.1 | 33.4 | 27.9 |  |  | 36.2
17 | COc1ccc2[nH]c3c(C)c4cnccc4c(C)c3c2c1 | > 10 | 2.83 | 3.65 | 6.77 | > 10 | > 10 | 2.78 | 4.64 | 3.43 | > 10 | 2.5 | 3.3 | > 10 | > 10 | 2.82 | 4.43 |  | > 10 | > 10
18 | CC(C)(C)OC(=O)N/N=C(/N)c1ccccc1 | > 100 | > 100 | > 100 | > 100 | > 100 | > 100 | > 100 | > 100 | > 100 | > 100 | > 100 | > 100 | > 100 |  | > 100 | > 100 |  |  | 
19 | CC1C(=O)C23OC[C@@]1(C)C1(O)CC[C@@H](C)[C@]21CC3=O (some centres undefined) | > 100 | > 100 | > 100 | > 100 | > 100 | > 100 | > 100 | > 100 | > 100 |  | > 100 | > 100 | > 100 | > 100 | > 100 | > 100 |  |  | > 100
20 | Cc1ccccc1NC(=O)C(=O)Cc1cnc2ccccc2n1 | > 100 | > 100 | > 100 | > 100 | > 100 | > 100 |  | > 100 | > 100 | > 100 | > 100 | > 100 | > 100 | > 100 | > 100 | > 100 | > 100 | > 100 | 
21 | c1ccc2c3nnc(c2c1)SCCSCCCSCCS3 | 76 | > 100 | > 100 | 86.1 | > 100 | > 100 | 70.9 | > 100 | > 100 | > 100 | > 100 | 40.6 |  | > 100 | 77.3 | > 100 | 92.6 | 87.7 | 
22 | CCOC(=O)C(Cc1cn(S(=O)(=O)c2ccc(C)cc2)cn1)P(=O)(OCC)OCC (centres undefined) | > 100 | > 100 | > 100 | > 100 | > 100 | > 100 | > 100 | > 100 | > 100 | > 100 | > 100 | > 100 | > 100 | > 100 | > 100 | > 100 |  |  | > 100
23 | O=C(Nc1cc(Cl)c(Cl)cc1Cl)C(=O)C(C(=O)c1ccc2ccccc2c1)C1OC(=O)c2ccccc21 (centres undefined) | 33.2 | 31.2 | 81.5 |  |  |  | 43.5 | 88.1 |  |  | 34.6 | 13 |  |  | 30.9 | 26.9 | 25.8 | 7.96 | > 100
24 | Cc1cc(C)c(NS(=O)c2cccc([N+](=O)[O-])c2)c(C)c1 (centres undefined) | > 100 | > 100 | > 100 |  | > 100 | > 100 | > 100 | > 100 |  |  |  | > 100 | > 100 |  | > 100 |  | > 100 | > 100 | > 100
25 | CCOC(=O)C(CC(C)C)NC(=O)C(Cc1ccccc1)NC(=O)CNC(=O)OC(C)(C)C (stereo not drawn) (Boc-Gly-Phe-Leu-OEt; configuration not given here) | > 100 | 37.5 | 44.1 |  | 97.8 | 43.3 | 64 | 9.88 | 28.4 | 23.2 | 32.6 | 28.5 | 30.6 | 96 | 39.4 | 34.8 | 49.6 | 64 | 36.5
26 | NC(=O)C(=CN1CC(=O)NC1=S)C(N)=O | > 100 | > 100 | > 100 | > 100 | > 100 | > 100 | > 100 | > 100 | > 100 | > 100 | > 100 | > 100 | > 100 |  |  |  | > 100 | > 100 | 
27 | COc1cccc(-c2cc(=O)c3cccnc3[nH]2)c1 | > 100 | > 100 | > 42.7 | > 100 | > 100 | > 100 | > 100 |  | 0.0394 | > 100 | > 100 | 0.538 | > 100 | > 100 | > 100 | > 100 | > 100 | > 100 | 
